# Results taken from patent US20110021475A1, “Compositions And Methods for Treatment Of Fibrosis” (priority 2003, published 2011).
# What was measured:
# [1] = tested on: rats treated with carbon tetrachloride (CCl4); assay: Acute liver fibrosis in vivo model (single dose CCl4); design: species or system rat
# Protocol: Male CRL:CD(SD)IGS® rats (Charles River Laboratories) weighing 250-280 g were randomized into three groups of 5-6 rats per group. On day 1, rats in Group 1 (Control) were given a single intraperitoneal (ip) injection of corn oil (5 ml/kg). Rats in Groups 2 and 3 were given a single ip injection of 30% carbon tetrachloride (CCl4) in corn oil (5 ml/kg). Beginning four hours after the initial ip injections and continuing for four days, rats in Group 1 (Control) and Group 2 (CCl4) were given vehicle (20% Encapsin; Cerestar Inc., IN) by oral gavage twice daily. Beginning four hours after the initial ip injections and continuing for four days, rats in Group 3 (CCl4+GW4064) were given 30 mg/kg GW4064 in vehicle by oral gavage, twice daily for four days.
# Four hours after the final oral dose on day four, rats were sacrificed under deep anesthesia and blood and livers were collected. A portion of liver from each rat was fixed in 10% phosphate-buffered formalin (pH 7.4). The remaining livers were snap frozen in liquid nitrogen and stored at −80° C. prior to RNA extraction.
# Histopathology: The tissues were processed by standard histological techniques. Liver sections were stained with hematoxylin and eosin (H&E) using standard protocols and examined by light microscopy for necrosis and other structural changes. Immunohistochemistry was used to visualize α-smooth muscle actin (DAKO Corporation, CA) according to the manufacturer's instructions. Sirius Red (Sigma, St Louis, Mo.) was used to visualize collagen according to the manufacturer's instructions.
# Reverse Transcription Quantitative Polymerase Chain Reaction (RTQ-PCR). Total RNA was extracted from rat liver using TRIzol reagent (Invitrogen) according to the manufacturer's directions. The RNA was treated with DNase I (Ambion, Austin, Tex.) at 37° C. for 30 min, followed by inactivation at 75° C. for 5 min. RNA was then quantitated using the RiboGreen RNA quantitation kit (Molecular Probes, Eugene, Oreg.). RNA expression was measured by RTQ-PCR using an ABI PRISM 7700 or 7900 Sequence Detection System (PE Applied Biosystems, Foster City, Calif.).
# (§1) Statistical Analysis: All data were analyzed by one-way analysis of variance (ANOVA) followed by Duncan's multiple range test. The 0.05 level of probability was used as the criteria of significance.
# [2] = tested on: rat hepatic stellate cells; assay: In vitro stellate cell activation (RTQ-PCR of SMA, collagen, fibronectin mRNA); format: cell-based
# Protocol: Rat hepatic stellate cells were isolated from male CRL:CD(SD)IGS® rats (Charles River Laboratories) as described previously. Cells were plated into six well plates at a density of 1×10^6 cells/well in DMEM-F12 media with 20% FCS. Twenty-four hours after plating, the media was replaced with media containing 0.1% DMSO (vehicle control) or 10 uM GW4064 with 0.1% DMSO. Following 2, 4, 6 or 8 days of treatment, total RNA was extracted from the cells using TRIzol reagent (Invitrogen) according to the manufacturer's directions. The RNA was treated with DNase I (Ambion, Austin, Tex.) at 37° C. for 30 min, followed by inactivation at 75° C. for 5 min. RNA was then quantitated using the RiboGreen RNA quantitation kit (Molecular Probes, Eugene, Oreg.). RNA expression was measured by RTQ-PCR using an ABI PRISM 7700 or 7900 Sequence Detection System (PE Applied Biosystems, Foster City, Calif.). For analysis, gene expression was normalized to 18S RNA. Follow-up studies were conducted using the same study design, except for a lower dose of GW4064 (3 uM). In the vehicle control group, SMA, collagen and fibronectin peaked at six days of culture; collagen and fibronectin expression began to decline following eight days in culture (FIGS. 4A-4C, white bars). […] (FIGS. 4a-4c, shaded bars; asterisk indicates p<0.05 compared to the vehicle treatment at the indicated timepoint).
# [3] = tested on: bile duct ligated (BDL) rats; assay: Bile duct ligated (BDL) rats: serum chemistry, liver histology and liver fibrosis marker mRNA; format: in vivo, rat; conditions: for level of Collagen I mRNA in liver / level of alpha SMA mRNA in liver: compared to sham operated rats (p<0.05)
# Protocol: A study of the effects of an FXR agonist (GW4064) on the livers of bile duct ligated (BDL) rats was carried out. This study was initially devised to examine the effects of FXR agonist on non-fibrotic liver damage due to cholestosis. The present researchers additionally went on to examine samples from these experiments for markers of liver fibrosis.
# Male Sprague-Dawley rats (approximately 300 grams) were obtained from Charles River Laboratories Inc (Raleigh, N.C.) and were maintained on a 12 hour light/12 hour dark light cycle. Animals were anesthetized by the administration of 2-3% isoflurane. Laparotomy was performed under sterile technique and the liver and duodenum gently displaced to reveal the common bile duct. The bile duct was separated from the surrounding tissue and two ligatures of 4-0 Ethilon were placed around it. The bile duct was clamped between the two ligatures with an aneurysm clamp and the ligatures drawn tight. An additional ligature was placed proximal to the first (near the liver). The clamp was removed and the bile duct severed between the ligatures. The muscle wall was closed with 4-0 Vicryl and the skin closed with staples. Sham controls underwent laparotomy, but the bile ducts were not ligated or transected. Animals were allowed food and water ad libitum throughout the study period. Animals were anesthetized with 2-3% isoflurane and sacrificed by cardiac puncture.
# Twenty-four hours after surgery, groups of rats (n=6-8) received intraperitoneal injections once daily for four days, of either (a) 5 ml/kg corn oil (vehicle); (b) 30 mg/kg GW4064 in corn oil; or (c) 15 mg/kg TUDCA in corn oil (taurine-conjugated ursodeoxycholic acid, used clinically to treat cholestosis). Sham operated animals received intraperitoneal injections of 5 ml/kg corn oil vehicle 24 hours after sham operation. Four hours after the last dose on day four, blood and livers were collected.
# Serum activities of alanine aminotransferase (ALT), asparate aminotransferase (AST), sorbital dehydrogenase (SDH), y-glutamyl transferase (GGT), lactate dehydrogenase (LDH), alkaline phosphatase (ALP) and total bilirubin were determined. Serum bile acids (BILEA) were determined using a commercially available assay (Sigma Chemical Co., St Louis, Mo.).
# In humans, liver fibrosis secondary to cholestatic disease is known to occur clinically. Experimentally, bile duct ligation in rats as a model of cholestosis is also known to cause liver fibrosis. In view of this, the present researchers additionally examined the BDL rat liver tissue for markers of liver fibrosis. Levels of Smooth Muscle Actin (SMA) mRNA, Collagen I mRNA, and TGFbeta1 mRNA were measured; results are graphed in FIG. 1a-1c where white bars=sham operated rats; black bars=vehicle treated BDL rats; striped bars=GW4064 treated BDL rats; and dotted bars=TUDCA treated BDL rats.
# [4] = tested on: rats treated with carbon tetrachloride (CCl4); assay: Chronic liver fibrosis in vivo model (twice weekly CCl4 up to eight weeks); design: species or system rat
# Protocol: Male CRL:CD(SD)IGS® rats (Charles River Laboratories) weighing 250-350 were randomized into 3 groups. All rats received twice weekly intraperitoneal (ip) injections of 20% carbon tetrachloride (CCl4) in corn oil (5 ml/kg) for the duration of the study. Two weeks after the initiation of the CCl4 injections, rats in Group 1 (CCL4+Vehicle) began receiving vehicle (6% Encapsin; Cerestar Inc., IN) twice daily, rats in Group 2 (CCL4+GW4064) began receiving 30 mg/kg GW4064 in vehicle twice daily, and rats in Group 3 (CCL4+Silymarin) began receiving silymarin in vehicle twice daily. (Silymarin reduces TGFb1 and collagen deposition in fibrotic rat liver (Jia et al., J Hepatol 2001 September; 35(3):392-8).
# Multiple rats from each group were sacrificed after each of four, six and eight weeks on study. Rats were also sacrificed following the two weeks of CCL4 exposure, prior to initiation of drug treatment, as well as five untreated Naive rats. An additional five untreated Naïve rats were also sacrificed at the eight week timepoint. Plasma, serum, kidneys and livers were collected for analysis. Histopathological, mRNA and serum markers of liver damage and liver fibrosis were examined.
# Histopathology: The tissues were processed by standard histological techniques. Liver sections were stained with hematoxylin and eosin (H&E) using standard protocols and examined by light microscopy for necrosis and other structural changes. Immunohistochemistry was used to visualize α-smooth muscle actin (Sigma, St Louis, Mo.) according to the manufacturer's instructions. Sirius Red (Sigma, St Louis, Mo.) was used to visualize collagen according to the manufacturer's instructions. Liver sections were stained with Masson's trichrome (Sigma, St Louis, Mo.) according to the manufacturer's instructions.
# Reverse Transcription Quantitative Polymerase Chain Reaction (RTQ-PCR). Total RNA was extracted from sections of rat liver using TRIzol reagent (Invitrogen) according to the manufacturer's directions. The RNA was treated with DNase I (Ambion, Austin, Tex.) at 37° C. for 30 min, followed by inactivation at 75°C. for 5 min. RNA was then quantitated using the RiboGreen RNA quantitation kit (Molecular Probes, Eugene, Oreg.). RNA expression was measured by RTQ-PCR using an ABI PRISM 7700 or 7900 Sequence Detection System (PE Applied Biosystems, Foster City, Calif.).
# Serum Analysis: Serum TIMP1 (R&D Systems, Minneapolis, Minn.) levels were measured according to the manufacturer's directions.
# as §1
# human hepatocytes = conditions: compared to control cells; cited from earlier work
# [5] = 30 mg/kg oral gavage twice daily for four days after single CCl4, compared to CCl4+V animals
# [6] = 30 mg/kg oral twice daily four days, compared to control
# [7] = 30 mg/kg oral twice daily four days, compared to group 2 (CCl4+vehicle), p<0.05
# [8] = 3 uM, eight days, compared to vehicle
# [9] = 3 uM, six days, compared to vehicle
# [10] = 10 uM, eighth day, compared to control group, normalized to 18S
# [11] = 10 uM, six days, compared to vehicle control group
# [12] = 30 mg/kg GW4064 or 15 mg/kg TUDCA ip once daily for four days, compared to vehicle-treated BDL rats
# [13] = day four, compared to vehicle-treated BDL rats
# [14] = ip once daily for four days, compared to vehicle treated BDL rats
# [15] = twice daily from week 2, compared to CCl4+Vehicle rats
# [16] = twice daily from week 2, compared to CCl4+Vehicle rats, 8 week timepoint
structure (smiles),measurement,setting,value
CC(C)c1onc(-c2c(Cl)cccc2Cl)c1COc1ccc(/C=C/c2cccc(C(=O)O)c2)c(Cl)c1 [GW4064],liver SMA (immunohistochemistry),[1]; [5],reduced SMA
same,liver collagen deposition (Sirius Red),[1]; [5],reduced collagen deposition
same,liver Collagen I mRNA,[1]; [6],not statistically different from control
same,liver SMA mRNA,[1]; [6],not statistically different from control
same,liver TGFb1 mRNA,[1]; [6],not statistically different from control
same,liver Collagen I mRNA,[1]; [7],significantly decreased
same,liver SMA mRNA,[1]; [7],significantly decreased
same,collagen mRNA,[2]; [8],not significantly different from vehicle
same,decrease of SMA mRNA,[2]; [8],40%
same,fibronectin mRNA,[2]; [8],not significantly different from vehicle
same,decrease of SMA mRNA,[2]; [9],55%
same,decrease of collagen mRNA,[2]; [9],31%
same,decrease of fibronectin mRNA,[2]; [9],28%
same,decrease of SMA mRNA,[2]; [10],84%
same,decrease of collagen mRNA,[2]; [10],51%
same,decrease of fibronectin mRNA,[2]; [10],79%
same,SMA mRNA,[2]; [11],decreased
same,fibronectin mRNA,[2]; [11],decreased
same,serum level of ALT,[3]; [12],reductions
same,serum level of LDH,[3]; [12],reductions
same,level of TGFb1 mRNA in liver,"[3]; day four, compared to BDL rats receiving vehicle or TUDCA",significantly reduced
same,level of Collagen I mRNA in liver,[3]; day four,significantly different
same,level of alpha SMA mRNA in liver,[3]; day four,significantly different
same,number of mitotic nuclei (liver histology),"[3]; day four, compared to vehicle treatment",reduced
same,bile duct proliferation (liver histology),[3]; [13],reduced bile duct proliferation
same,fatty cell degeneration (liver histology),[3]; [13],decreased fatty cell degeneration
same,liver necrotic lesions (histology),[3]; [13],qualitatively fewer and smaller necrotic lesions
same,serum bile acids,[3]; [14],did not significantly reduce
same,serum level of ALP,[3]; [14],did not significantly reduce
same,serum level of GGT,[3]; [14],did not significantly reduce
same,serum level of SDH,[3]; [14],did not significantly reduce
same,serum total bilirubin,[3]; [14],did not significantly reduce
same,serum level of AST,"[3]; ip once daily for four days, compared to vehicle-treated BDL rats",reductions
same,liver collagen deposition (Sirius Red),"[4]; twice daily from week 2 (GW4064 30 mg/kg), six and eight week timepoints, compared to CCl4+V animals",reduced collagen deposition
same,liver TGFb1 mRNA,[4]; [15],unchanged
same,reduction in liver SMA mRNA,[4]; [15],not statistically significant
same,liver Collagen I mRNA,[4]; [16],significant reductions
same,liver TIMP1 mRNA,[4]; [16],significant reductions
same,serum TIMP1,"[4]; twice daily from week 2, compared to CCl4+Vehicle treated rats at 8 weeks, p<0.05",significant reductions
same,expression of Fibroblast Growth Factor 19 (FGF19),human hepatocytes,increased
"C[C@H](CCC(=O)NCCS(=O)(=O)O)[C@H]1CC[C@H]2[C@@H]3[C@@H](O)C[C@@H]4C[C@H](O)CC[C@]4(C)[C@H]3CC[C@]12C [TUDCA, taurine-conjugated ursodeoxycholic acid, reference compound]",serum level of LDH,[3]; [12],significant decrease
same,level of Collagen I mRNA in liver,[3]; day four,significantly different
same,level of alpha SMA mRNA in liver,[3]; day four,significantly different
same,"liver sections, histology overall (necrosis, bile duct proliferation)","[3]; day four, compared to vehicle treated BDL rats",did not appear to differ substantially from vehicle treated BDL rats
